From ChEMBL document CHEMBL3885861, “Open TG-GATES”

Organism: Rattus norvegicus
Experiment: Open TG-GATES - Regimen: Daily Repeat
Format: toxicity, organism-based, Sprague-Dawley
Set-up: regimen Daily Repeat, gender Male, age 6 weeks
Conditions: in vivo, sc, 0.02 mg/kg, route subcutaneous injection, dose 20 ug/Kg, dose level Middle; for APTT / Bas / Eos / Fbg / Hb / Ht / Lym / MCH / MCHC / MCV / Mono / Neu / PT / Plat / RBC / Ret / WBC: tissue Blood; for KIDNEY_L / KIDNEY_R / KIDNEY_TOTAL: tissue Kidney; for LIVER: tissue Liver; for A/G / ALP / ALT / AST / BUN / CRE / Ca / Cl / DBIL / GLC / IP / K / LDH / Na / PL / RALB / TBIL / TC / TG / TP / gamma-GTP: tissue Plasma

Work on CC(=O)O.N=C(N)NCCC[C@@H](NC(=O)[C@@H]1CCCN1C(=O)[C@@H]1CSSCCC(=O)N[C@@H](Cc2ccc(O)cc2)C(=O)N[C@@H](Cc2ccccc2)C(=O)N[C@@H](CCC(N)=O)C(=O)N[C@@H](CC(N)=O)C(=O)N1)C(=O)NCC(N)=O [DESMOPRESSIN ACETATE] yielded a TERMINAL_BW (72 h, time 3 day) of 235.6 g, an APTT (72 h, time 3 day) of 16.2 s and a Bas (72 h, time 3 day) of 0%. For the same compound, the Eos (72 h, time 3 day) was 1%, the Fbg (72 h, time 3 day) was 270.4 mg/dL and the Hb (72 h, time 3 day) was 13.3 g/dL. For the same compound, the Ht (72 h, time 3 day) was 40.4%, the Lym (72 h, time 3 day) was 69.8% and the MCH (72 h, time 3 day) was 21.6 pg. The MCHC (72 h, time 3 day) was 32.8%, the MCV (72 h, time 3 day) was 65.8 fL and the Mono (72 h, time 3 day) was 8.6%. The Neu (72 h, time 3 day) was 20.6%, the PT (72 h, time 3 day) was 11.8 s and the Plat (72 h, time 3 day) was 123.6 x10_4/uL. It also gave an RBC (72 h, time 3 day) of 613.8 x10_4/ul, a Ret (72 h, time 3 day) of 8% and a WBC (72 h, time 3 day) of 99.6 x10_2/uL. The KIDNEY_L (72 h, time 3 day) was 1.1 g, the KIDNEY_R (72 h, time 3 day) was 1.1 g and the KIDNEY_TOTAL (72 h, time 3 day) was 2.2 g. For the same compound, the LIVER (72 h, time 3 day) was 10.9 g, the A/G (72 h, time 3 day) was 2 and the ALP (72 h, time 3 day) was 1305 IU/L. It also gave an ALT (72 h, time 3 day) of 39 IU/L, an AST (72 h, time 3 day) of 72.8 IU/L and a BUN (72 h, time 3 day) of 16.2 mg/dL. The CRE (72 h, time 3 day) was 0.4 mg/dL, the Ca (72 h, time 3 day) was 11.4 mg/dL and the Cl (72 h, time 3 day) was 103 meq/L. The DBIL (72 h, time 3 day) was 0.012 mg/dL, the GLC (72 h, time 3 day) was 193 mg/dL and the IP (72 h, time 3 day) was 7.9 mg/dL. For the same compound, the K (72 h, time 3 day) was 5.3 meq/L, the LDH (72 h, time 3 day) was 205.2 IU/L and the Na (72 h, time 3 day) was 135 meq/L. The PL (72 h, time 3 day) was 157.2 mg/dL, the RALB (72 h, time 3 day) was 3.8 g/dL and the TBIL (72 h, time 3 day) was 0.04 mg/dL. For the same compound, the TC (72 h, time 3 day) was 87.6 mg/dL, the TG (72 h, time 3 day) was 108.8 mg/dL and the TP (72 h, time 3 day) was 5.7 g/dL. It also gave a gamma-GTP (72 h, time 3 day) of 1 IU/L, a TERMINAL_BW ([…], time 7 day) of 276.7 g and a TERMINAL_BW ([…], time 14 day) of 325 g. It also gave a TERMINAL_BW ([…], time 28 day) of 428.4 g, an APTT ([…], time 7 day) of 16.6 s and a Bas ([…], time 7 day) of 0%. For the same compound, the Eos ([…], time 7 day) was 1.2%, the Fbg ([…], time 7 day) was 263.2 mg/dL and the Hb ([…], time 7 day) was 13 g/dL. For the same compound, the Ht ([…], time 7 day) was 39.8%, the Lym ([…], time 7 day) was 72.2% and the MCH ([…], time 7 day) was 20.8 pg. For the same compound, the MCHC ([…], time 7 day) was 32.7%, the MCV ([…], time 7 day) was 63.6 fL and the Mono ([…], time 7 day) was 6.8%. The Neu ([…], time 7 day) was 20%, the PT ([…], time 7 day) was 12.2 s and the Plat ([…], time 7 day) was 125.6 x10_4/uL. The RBC ([…], time 7 day) was 627 x10_4/ul, the Ret ([…], time 7 day) was 7.1% and the WBC ([…], time 7 day) was 114 x10_2/uL. It also gave an APTT ([…], time 14 day) of 17.5 s, a Bas ([…], time 14 day) of 0% and an Eos ([…], time 14 day) of 1.2%. The Fbg ([…], time 14 day) was 253.6 mg/dL, the Hb ([…], time 14 day) was 14.2 g/dL and the Ht ([…], time 14 day) was 43.2%. The Lym ([…], time 14 day) was 72%, the MCH ([…], time 14 day) was 20 pg and the MCHC ([…], time 14 day) was 32.8%. It also gave an MCV ([…], time 14 day) of 60.9 fL, a Mono ([…], time 14 day) of 10.6% and a Neu ([…], time 14 day) of 16.6%. For the same compound, the PT ([…], time 14 day) was 12.2 s, the Plat ([…], time 14 day) was 123.2 x10_4/uL and the RBC ([…], time 14 day) was 710.2 x10_4/ul. The Ret ([…], time 14 day) was 6%, the WBC ([…], time 14 day) was 101.6 x10_2/uL and the APTT ([…], time 28 day) was 16.7 s. The Bas ([…], time 28 day) was 0%, the Eos ([…], time 28 day) was 0.8% and the Fbg ([…], time 28 day) was 250 mg/dL. The Hb ([…], time 28 day) was 15 g/dL, the Ht ([…], time 28 day) was 46.3% and the Lym ([…], time 28 day) was 75.8%. For the same compound, the MCH ([…], time 28 day) was 19.3 pg, the MCHC ([…], time 28 day) was 32.5% and the MCV ([…], time 28 day) was 59.4 fL. It also gave a Mono ([…], time 28 day) of 6%, a Neu ([…], time 28 day) of 17.4% and a PT ([…], time 28 day) of 11.8 s. The Plat ([…], time 28 day) was 112 x10_4/uL, the RBC ([…], time 28 day) was 780.2 x10_4/ul and the Ret ([…], time 28 day) was 3.5%. The WBC ([…], time 28 day) was 128.4 x10_2/uL, the KIDNEY_L ([…], time 7 day) was 1.2 g and the KIDNEY_R ([…], time 7 day) was 1.2 g. The KIDNEY_TOTAL ([…], time 7 day) was 2.5 g, the KIDNEY_L ([…], time 14 day) was 1.3 g and the KIDNEY_R ([…], time 14 day) was 1.4 g. The KIDNEY_TOTAL ([…], time 14 day) was 2.7 g, the KIDNEY_L ([…], time 28 day) was 1.7 g and the KIDNEY_R ([…], time 28 day) was 1.7 g. The KIDNEY_TOTAL ([…], time 28 day) was 3.4 g, the LIVER ([…], time 7 day) was 12.1 g and the LIVER ([…], time 14 day) was 13.4 g. The LIVER ([…], time 28 day) was 16.1 g, the A/G ([…], time 7 day) was 2 and the ALP ([…], time 7 day) was 1103 IU/L. For the same compound, the ALT ([…], time 7 day) was 29.6 IU/L, the AST ([…], time 7 day) was 69.6 IU/L and the BUN ([…], time 7 day) was 15.4 mg/dL. It also gave a CRE ([…], time 7 day) of 0.4 mg/dL, a Ca ([…], time 7 day) of 13.4 mg/dL and a Cl ([…], time 7 day) of 100.2 meq/L. For the same compound, the DBIL ([…], time 7 day) was 0.01 mg/dL, the GLC ([…], time 7 day) was 201 mg/dL and the IP ([…], time 7 day) was 7.9 mg/dL. For the same compound, the K ([…], time 7 day) was 5.1 meq/L, the LDH ([…], time 7 day) was 160.2 IU/L and the Na ([…], time 7 day) was 130.8 meq/L. The PL ([…], time 7 day) was 138 mg/dL, the RALB ([…], time 7 day) was 3.6 g/dL and the TBIL ([…], time 7 day) was 0.042 mg/dL. The TC ([…], time 7 day) was 75.8 mg/dL, the TG ([…], time 7 day) was 95 mg/dL and the TP ([…], time 7 day) was 5.5 g/dL. For the same compound, the gamma-GTP ([…], time 7 day) was 1 IU/L, the A/G ([…], time 14 day) was 1.8 and the ALP ([…], time 14 day) was 1136 IU/L. The ALT ([…], time 14 day) was 29.4 IU/L, the AST ([…], time 14 day) was 68.2 IU/L and the BUN ([…], time 14 day) was 17.8 mg/dL. For the same compound, the CRE ([…], time 14 day) was 0.4 mg/dL, the Ca ([…], time 14 day) was 10.6 mg/dL and the Cl ([…], time 14 day) was 105.8 meq/L. It also gave a DBIL ([…], time 14 day) of 0.014 mg/dL, a GLC ([…], time 14 day) of 190.6 mg/dL and an IP ([…], time 14 day) of 7.3 mg/dL. It also gave a K ([…], time 14 day) of 5.3 meq/L, an LDH ([…], time 14 day) of 133.8 IU/L and a Na ([…], time 14 day) of 138.4 meq/L. The PL ([…], time 14 day) was 130.6 mg/dL, the RALB ([…], time 14 day) was 3.7 g/dL and the TBIL ([…], time 14 day) was 0.032 mg/dL. It also gave a TC ([…], time 14 day) of 65.2 mg/dL, a TG ([…], time 14 day) of 109.4 mg/dL and a TP ([…], time 14 day) of 5.7 g/dL. It also gave a gamma-GTP ([…], time 14 day) of 1 IU/L, an A/G ([…], time 28 day) of 1.6 and an ALP ([…], time 28 day) of 834.8 IU/L. The ALT ([…], time 28 day) was 27.4 IU/L, the AST ([…], time 28 day) was 65 IU/L and the BUN ([…], time 28 day) was 18 mg/dL. The CRE ([…], time 28 day) was 0.4 mg/dL, the Ca ([…], time 28 day) was 9.1 mg/dL and the Cl ([…], time 28 day) was 104.2 meq/L. For the same compound, the DBIL ([…], time 28 day) was 0.014 mg/dL, the GLC ([…], time 28 day) was 190 mg/dL and the IP ([…], time 28 day) was 6.7 mg/dL. It also gave a K ([…], time 28 day) of 4.9 meq/L, an LDH ([…], time 28 day) of 143.8 IU/L and a Na ([…], time 28 day) of 137.6 meq/L. It also gave a PL ([…], time 28 day) of 135.2 mg/dL, an RALB ([…], time 28 day) of 3.7 g/dL and a TBIL ([…], time 28 day) of 0.048 mg/dL. For the same compound, the TC ([…], time 28 day) was 69.4 mg/dL, the TG ([…], time 28 day) was 107.8 mg/dL and the TP ([…], time 28 day) was 6.1 g/dL. The gamma-GTP ([…], time 28 day) was 0.4 IU/L.
